Measurements: ChEMBL document CHEMBL4616717, “Discovery of GNE-149 as a Full Antagonist and Efficient Degrader of Estrogen Receptor alpha for ER+ Breast Cancer” (ACS Med Chem Lett, 2020)
pIC50: −log10 of the molar value. Activity calls are given as the source filed them. The calls are words filed in the database; no cut-off is given here.

Columns and labels:
T47D = experiment: Antiproliferative activity against human T47D cells assessed as reduction in cell viability; type: functional, cell-based
MCF7 [1] = experiment: Antiproliferative activity against human MCF7 cells assessed as reduction in cell viability after 72 hrs by Celltiter-Glo assay; type: functional, cell-based; settings: MCF7, 72 h
Estrogen receptor [2] = biological target: T1, Estrogen receptor (Homo sapiens, UniProt P03372); experiment: Agonist activity at ERalpha in human Ishikawa cells after 72 hrs by alkaline phosphatase assay; type: cell-based
T1 sequence (P03372 whole entry): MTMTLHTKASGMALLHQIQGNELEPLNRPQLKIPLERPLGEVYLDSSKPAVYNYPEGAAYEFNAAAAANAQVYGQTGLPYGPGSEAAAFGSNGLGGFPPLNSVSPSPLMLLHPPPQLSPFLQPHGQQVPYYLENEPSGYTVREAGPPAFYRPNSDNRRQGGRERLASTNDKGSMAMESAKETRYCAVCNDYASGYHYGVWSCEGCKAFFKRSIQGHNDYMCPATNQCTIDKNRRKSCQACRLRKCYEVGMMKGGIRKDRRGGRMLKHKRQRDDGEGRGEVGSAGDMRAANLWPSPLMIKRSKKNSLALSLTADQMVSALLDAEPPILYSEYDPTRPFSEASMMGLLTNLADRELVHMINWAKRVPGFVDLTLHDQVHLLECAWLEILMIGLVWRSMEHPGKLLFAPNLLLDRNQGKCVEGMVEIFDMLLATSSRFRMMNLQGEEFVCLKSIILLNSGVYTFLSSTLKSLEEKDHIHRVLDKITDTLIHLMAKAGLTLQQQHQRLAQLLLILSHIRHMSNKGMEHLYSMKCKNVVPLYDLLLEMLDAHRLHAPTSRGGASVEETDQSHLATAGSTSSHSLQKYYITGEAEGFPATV

Estrogen receptor [3] = biological target: T1, Estrogen receptor; experiment: Induction of ERalpha degradation in human MCF7 cells after 4 hrs by FITC/Hoechst staining based immunofluorescence imaging analysis; type: cell-based
[4] = Oral bioavailability in dog; settings: in vivo
[5] = Clearance in dog; type: ADME, Canis lupus familiaris; settings: in vivo
[6] = Clearance in cynomolgus monkey; type: ADME, Macaca fascicularis; settings: in vivo
[7] = Clearance in rat; type: ADME; settings: in vivo
[8] = Oral bioavailability in cynomolgus monkey; settings: in vivo
MCF7 [9] = experiment: Antitumor activity against human MCF7 cells harboring ER Y537S mutant xenografted in po dosed CRL:NU-Foxn1 mouse assessed as tumor regression administered qd for 21 days in presence of 17-beta estradiol pellets and measured twice per week by caliper method; type: functional, organism-based
[10] = Oral bioavailability in rat; settings: in vivo
[11] = biological target: T2, Estrogen receptor (Rattus norvegicus) (UniProt P06211); experiment: In vivo antagonist activity at ERalpha in CRL:CD(SD) rat assessed as inhibition of estradiol-induced increase in uterine wet weight at 10 mg/kg, po administered as MCT suspension for 3 days and measured at 4 hrs post last dose on day 4; type: functional, organism-based
T2 sequence (whole entry): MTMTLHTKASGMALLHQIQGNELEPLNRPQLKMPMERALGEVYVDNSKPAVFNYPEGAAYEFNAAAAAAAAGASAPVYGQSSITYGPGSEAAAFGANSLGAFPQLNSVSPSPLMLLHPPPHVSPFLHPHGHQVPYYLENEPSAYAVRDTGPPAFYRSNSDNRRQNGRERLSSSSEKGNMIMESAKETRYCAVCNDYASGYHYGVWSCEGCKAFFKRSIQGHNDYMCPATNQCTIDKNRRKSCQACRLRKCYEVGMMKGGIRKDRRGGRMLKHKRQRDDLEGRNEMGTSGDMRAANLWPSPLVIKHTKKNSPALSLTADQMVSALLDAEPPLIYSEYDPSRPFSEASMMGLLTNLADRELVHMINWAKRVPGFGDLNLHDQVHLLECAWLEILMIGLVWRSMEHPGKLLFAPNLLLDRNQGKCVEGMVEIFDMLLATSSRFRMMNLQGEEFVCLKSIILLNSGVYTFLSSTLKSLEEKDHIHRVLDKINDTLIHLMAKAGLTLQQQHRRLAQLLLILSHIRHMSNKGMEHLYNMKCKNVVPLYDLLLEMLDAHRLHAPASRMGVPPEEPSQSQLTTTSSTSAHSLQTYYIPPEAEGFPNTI

MCF7 [12] = experiment: Antitumor activity against human MCF7 cells expressing wild-type ER xenografted in po dosed CRL:NU-Foxn1 mouse administered qd for 28 days in presence of 17-beta-estradiol pellets and measured twice per week by caliper method; type: functional, organism-based
MCF7 [13] = experiment: Antitumor activity against human MCF7 cells harboring ER Y537S mutant xenografted in CRL:NU-Foxn1 mouse assessed as tumor regression at 1 to 30 mg/kg, po qd for 21 days in presence of 17-beta estradiol pellets and measured twice per week by caliper method; type: functional, organism-based

Row | SMILES | pIC50 (MCF7 [1]) | pIC50 (Estrogen receptor [3]) | also measured
1 | C[C@]12CC[C@@H]3c4ccc(O)cc4C[C@@H](CCCCCCCCC[S+]([O-])CCCC(F)(F)C(F)(F)F)[C@H]3[C@@H]1CC[C@@H]2O (stereo not given in full) [FULVESTRANT] | 8.59 | – | pIC50 (T47D): 8.52; Activity (Estrogen receptor [2]): Not Active
2 | C[C@@H]1Cc2c([nH]c3ccccc23)[C@@H](c2c(F)cc(OCCN3CC(C(F)F)C3)cc2F)N1CC(C)(C)F | 8.64 | – | –
3 | C#CCN1CC(Oc2cc(F)c([C@@H]3c4[nH]c5ccccc5c4C[C@@H](C)N3CC(C)(C)F)c(F)c2)C1 | 9.09 | 10.08 | –
4 | C[C@@H]1Cc2c([nH]c3ccccc23)[C@@H](c2c(F)cc(OCCN3CC[C@@H](CF)C3)cc2F)N1CC(C)(C)F | 8.82 | – | –
5 | C[C@@H]1Cc2c([nH]c3ccccc23)[C@@H](c2c(F)cc(OCCN3CC(CF)C3)cc2F)N1CC(C)(C)F | 8.80 | – | –
6 | CC1=C(c2cccc(O)c2)[C@H](c2ccc(OCCN3CC(CF)C3)cc2)Oc2ccc(O)cc21 | 9.52 | – | bioavailability [4]: 23%; clearance [5]: 24 mL/min/kg; pIC50 (T47D): 9.54; clearance [6]: 17 mL/min/kg; clearance [7]: 81 mL/min/kg; bioavailability [8]: 5%; Activity (Estrogen receptor [2]): Not Active
7 | C[C@@H]1Cc2c([nH]c3ccccc23)[C@@H](c2c(F)cc(OC3CN(C[C@H]4C[C@H]4F)C3)cc2F)N1CC(C)(C)F | 8.74 | 9.25 | –
8 | C[C@@H]1Cc2c([nH]c3ccccc23)[C@@H](c2c(F)cc(OCCN3CC(F)(CF)C3)cc2F)N1CC(C)(C)F | 8.57 | 9.42 | –
9 | C[C@@H]1Cc2c([nH]c3ccccc23)[C@@H](c2c(F)cc(OC[C@H](C)N3CC[C@@H](CF)C3)cc2F)N1CC(C)(C)F | 8.77 | – | –

Further molecules by rising pIC50 (MCF7 [1]), results first:

Row | pIC50 (MCF7 [1]) | pIC50 (Estrogen receptor [3]) | SMILES | also measured
10 | 7.36 | – | CC/C(=C(/c1ccc(/C=C/C(=O)O)cc1)c1ccc2[nH]ncc2c1)c1ccc(F)cc1Cl [BRILANESTRANT] | pIC50 (T47D): 7.57
11 | 8.07 | 9.41 | C[C@@H]1Cc2c([nH]c3ccccc23)[C@@H](c2c(F)cc(OC3CN(CCCCF)C3)cc2F)N1CC(C)(C)F | –
12 | 8.19 | 9.26 | C[C@@H]1Cc2c([nH]c3ccccc23)[C@@H](c2c(F)cc(OC3CN(C[C@H]4C[C@@H]4F)C3)cc2F)N1CC(C)(C)F | –
13 | 8.25 | 9.28 | C[C@@H]1Cc2c([nH]c3ccccc23)[C@@H](c2c(F)cc(OC3CN(CC4(CF)CC4)C3)cc2F)N1CC(C)(C)F | –
14 | 8.52 | – | C[C@@H]1Cc2c([nH]c3ccccc23)[C@@H](c2c(F)cc(OC3CN(CCCCl)C3)cc2F)N1CC(C)(C)F | –
15 | 8.82 | – | CCCN1CC(Oc2cc(F)c([C@@H]3c4[nH]c5ccccc5c4C[C@@H](C)N3CC(C)(C)F)c(F)c2)C1 | –
16 | 8.89 | 9.74 | C[C@@H]1Cc2c([nH]c3ccccc23)[C@@H](c2c(F)cc(OC3CN(CCF)C3)cc2F)N1CC(C)(C)F | –
17 | 9.05 | 9.72 | CC1CN(CCOc2cc(F)c([C@@H]3c4[nH]c5ccccc5c4C[C@@H](C)N3CC(C)(C)F)c(F)c2)C1 | –
18 | 9.08 | 9.82 | C=CCN1CC(Oc2cc(F)c([C@@H]3c4[nH]c5ccccc5c4C[C@@H](C)N3CC(C)(C)F)c(F)c2)C1 | –
19 | 9.18 | – | C[C@@H]1Cc2c([nH]c3ccccc23)[C@@H](c2c(F)cc(OC3CN(CCCF)C3)cc2F)N1CC(C)(C)F | bioavailability [4]: 49%; clearance [5]: 8 mL/min/kg; pIC50 (T47D): 9.16; clearance [6]: 13 mL/min/kg; Activity (MCF7 [9]): Dose-dependent effect; bioavailability [10]: 31%; inhibition [11]: Active; Activity (MCF7 [12]): Dose-dependent effect; clearance [7]: 19 mL/min/kg; Activity (MCF7 [13]): Active; bioavailability [8]: 28%; Activity (Estrogen receptor [2]): Not Active
